In patent US8853246B2 (Dow AgroSciences LLC, priority 2009, dated 2014):
Like-named read-outs stand apart in the source and are kept apart here.

Tests used:
[1] = tested on: Green Peach Aphid (Myzus Persicae); assay: Insecticidal test for green peach aphid in foliar spray assay (col. MYZUPE); type: in vivo; settings: for pest or weed control at 200 ppm: Myzus persicae, 72 h, read-out: MYZUPE 200 ppm (Corrected % Control, rating)
Method: (§1) The compounds were tested against cotton aphid, green peach aphid, and sweet potato whitefly using procedures described in the following examples and reported in Table 2.
(§2) In each case of Table 2, the rating scale is as follows at 200 ppm.
Insecticidal Test for Green Peach Aphid (Myzus Persicae) in Foliar Spray Assay
Cabbage seedlings grown in 3-inch pots, with 2-3 small (3-5 cm) true leaves, were used as test substrate. The seedlings were infested with 20-50 green peach aphids (wingless adult and nymph) one day prior to chemical application. Four pots with individual seedlings were used for each treatment. Compounds (2 mg) were dissolved in 2 mL of acetone/methanol (1:1) solvent, forming stock solutions of 1000 ppm. The stock solutions were diluted 5× with 0.025% Tween 20 in H2O to obtain a test solution at 200 ppm. A hand-held Devilbiss sprayer was used for spraying a solution to both sides of cabbage leaves until runoff. Reference plants (solvent check) were sprayed with the diluent only. Treated plants were held in a holding room for three days at approximately 25° C. and 40% relative humidity (RH) prior to grading. Evaluation was conducted by counting the number of live aphids per plant under a microscope. Corrected % Control=100*(X−Y)/X • where X=No. of live aphids on solvent check plants • Y=No. of live aphids on treated plants

[2] = tested on: Sweetpotato Whitefly-Crawler (Bemisia Tabaci); assay: Insecticidal test for sweetpotato whitefly-crawler in foliar spray assay (col. BEMITA); type: in vivo; settings: for pest or weed control at 200 ppm: Bemisia tabaci, read-out: BEMITA 200 ppm (Corrected % Control, rating)
Method: as §1, §2
Insecticidal Test for Sweetpotato Whitefly-Crawler (Bemisia Tabaci) in Foliar Spray Assay
Cotton plants grown in 3-inch pots, with 1 small (3-5 cm) true leaf, were used as test substrate. The plants were placed in a room with whitefly adults. Adults were allowed to deposit eggs for 2-3 days. After a 2-3 day egg-laying period, plants were taken from the adult whitefly room. Adults were blown off leaves using a hand-held Devilbiss sprayer (23 psi). Plants with egg infestation (100-300 eggs per plant) were placed in a holding room for 5-6 days at 82° F. and 50% RH for egg hatch and crawler stage to develop. Four cotton plants were used for each treatment. Compounds (2 mg) were dissolved in 1 mL of acetone solvent, forming stock solutions of 2000 ppm. The stock solutions were diluted 10× with 0.025% Tween 20 in H2O to obtain a test solution at 200 ppm. A hand-held Devilbiss sprayer was used for spraying a solution to both sides of cotton leaf until runoff. Reference plants (solvent check) were sprayed with the diluent only. Treated plants were held in a holding room for 8-9 days at approximately 82° F. and 50% RH prior to grading. Evaluation was conducted by counting the number of live nymphs per plant under a microscope. Insecticidal activity was measured by using Abbott's correction formula and presented in Table 2 (see col. “BEMITA”): Corrected % Control=100*(X−Y)/X • where X=No. of live nymphs on solvent check plants • Y=No. of live nymphs on treated plants Pesticidally Acceptable Acid Addition Salts, Salt Derivatives, Solvates, Ester Derivatives, Polymorphs, Isotopes and Radionuclides

Structure (SMILES)	pest or weed control at 200 ppm ([1]; Abbott's correction formula) [%]	pest or weed control at 200 ppm ([2]; Abbott's correction formula) [%]	pest or weed control at 200 ppm ([1]; green peach aphid) [%]	pest or weed control at 200 ppm ([2]; sweetpotato whitefly-crawler) [%]	other results
CN(C(=S)NCCSc1ccc(Cl)cc1)c1sc(-c2cccnc2)nc1Cl [Compound 512]	< 80	80 to 100			
Cc1nc(-c2cccnc2)sc1NC(=O)CN(C)S(=O)(=O)/C=C/c1ccccc1 [Compound 435]	< 80	< 80			
Cc1nc(-c2cccnc2)sc1N(C(=O)OC(C)(C)C)C(C)C [Compound 13, Isopropyl-(4-methyl-2-pyridin-3-yl-thiazol-5-yl)-carbamic acid tert-butyl ester]			80 to 100	80 to 100	
CSCC(C)C(=O)N(C(=O)OC(C)(C)C)c1sc(-c2cncc(C)c2)nc1C (centres unmarked) [Compound 156, [4-methyl-2-(5-methyl-pyridin-3-yl)-thiazol-5-yl]-(2-methyl-3-methylsulfanyl-propionyl)-carbamic acid tert-butyl ester]			80 to 100	< 80	
CCN(C(=O)c1scnc1C)c1sc(-c2cccnc2)nc1Cl [Compound 555]	80 to 100	< 80			
CCN(C(=O)C(C)C(C)[S+](C)[O-])c1sc(-c2cccnc2)nc1Cl (centres unmarked) [Compound 565]	80 to 100	80 to 100			
CCN(C(=O)C(C)C)c1sc(-c2cncc(F)c2)nc1Cl [Compound 275]			80 to 100	80 to 100	
CSCc1ccc(C(=O)N(C)c2sc(-c3cccnc3)nc2Cl)o1 [Compound 409]					MYZUPE 200 ppm (Corrected % Control, rating) ([1]; green peach aphid): A (80-100); BEMITA 200 ppm (Corrected % Control, rating) ([2]; sweetpotato whitefly-crawler): A (80-100)
CSCC(C)C(=O)N(Cc1ccccc1)c1sc(-c2cccnc2)nc1C (centres unmarked) [Compound 221]			80 to 100	< 80	
CSCCCC(=O)N(C)c1sc(-c2cccnc2)nc1C [Compound 368]			80 to 100	80 to 100	
CSCC(C)C(=O)N(CC1CC1)c1sc(-c2cccnc2)nc1C (centres unmarked) [Compound 468]	80 to 100	< 80			
Cc1nc(-c2cncc(F)c2)sc1N(C)C(=O)CC(C)[S+](C)[O-] (centres unmarked) [Compound 285]			80 to 100	80 to 100	
CCN(C(=O)c1ccc(C(C)=O)s1)c1sc(-c2cccnc2)nc1Cl [Compound 543]	80 to 100	80 to 100			
CCN(C(=O)Cc1ccncc1)c1sc(-c2cccnc2)nc1Cl [Compound 562]	80 to 100	< 80			
CN(C(=O)C1CCSC1)c1sc(-c2cccnc2)nc1Cl (centres unmarked) [Compound 517]	80 to 100	< 80			
CCN(C(=O)CC[S+](C)[O-])c1sc(-c2cccnc2)nc1Cl (centres unmarked) [Compound 314]			80 to 100	80 to 100	
Cc1nc(-c2cccnc2)sc1N(C)C(=O)CN(C)C(=O)C(C)n1cccn1 (centres unmarked) [Compound 430]	80 to 100	< 80			
CCC(C)C(=O)N(CC)c1sc(-c2cccnc2)nc1Cl (centres unmarked) [Compound 531]	80 to 100	80 to 100			
CCCC(C)(C)OC(=O)Nc1sc(-c2cccnc2)nc1C [Compound 192]			80 to 100	80 to 100	
Cc1nc(-c2cccnc2)sc1NC(=O)CCC1CC1 [Compound 416]			80 to 100	80 to 100	
CCOC(=O)c1cncc(-c2nc(C)c(N(C(=O)OC(C)(C)C)C(=O)C(C)CSC)s2)c1 (centres unmarked) [Compound 155]			< 80	< 80	
CC(C(=O)N(C)c1sc(-c2cccnc2)nc1Cl)C(C)[S+](C)[O-] (centres unmarked) [Compound 522]	80 to 100	< 80			
CSCC(C)C(=S)Nc1sc(-c2cccnc2)nc1C (centres unmarked) [Compound 180, 2-methyl-N-(4-methyl-2-pyridin-3-yl-thiazol-5-yl)-3-methylsulfanyl-thiopropionamide]			80 to 100	80 to 100	

Structure (SMILES)	pest or weed control at 200 ppm ([1]; Abbott's correction formula) [%]	pest or weed control at 200 ppm ([2]; Abbott's correction formula) [%]	pest or weed control at 200 ppm ([1]; green peach aphid) [%]	pest or weed control at 200 ppm ([2]; sweetpotato whitefly-crawler) [%]	other results
CCOC(=O)N(C)c1cnc(-c2cncc(F)c2)s1 [Compound 76, [2-(5-Fluoropyridin-3-yl)-thiazol-5-yl]-methyl-carbamic acid ethyl ester]			80 to 100	80 to 100	
CSCC(C)C(=O)N(C(=O)C(C)C)c1sc(-c2cncc(F)c2)nc1C (centres unmarked) [Compound 200]			80 to 100	80 to 100	
CCN(C(=O)C(C)CSC)c1sc(-c2cncc(F)c2)nc1F (centres unmarked) [Compound 456]	80 to 100	< 80			
CCN(C(=O)C(C)c1ccc(Cl)cc1)c1sc(-c2cccnc2)nc1Cl (centres unmarked) [Compound 540]	80 to 100	80 to 100			
CCN(C(=O)Cc1ccc(Cl)nc1)c1sc(-c2cccnc2)nc1Cl [Compound 561]	80 to 100	< 80			
CCN(C(=O)Cc1ccc(Cl)cc1)c1sc(-c2cccnc2)nc1Cl [Compound 575]	80 to 100	< 80			
CCCN(C(=O)OC(C)(C)C)c1sc(-c2cccnc2)nc1C [Compound 284]			80 to 100	80 to 100	
CCN(C(=O)c1ccc(CSC)o1)c1sc(-c2cccnc2)nc1Cl [Compound 545]	80 to 100	< 80			
CCN(C(=O)CC(C)(C)SC)c1sc(-c2cccnc2)nc1Cl [Compound 490]	80 to 100	< 80			
CCN(C(=O)CCSC)c1sc(-c2cncc(F)c2)nc1F [Compound 425]			80 to 100	80 to 100	
CN(C(=O)CN(C)S(C)(=O)=O)c1sc(-c2cccnc2)nc1Cl [Compound 434]	80 to 100	80 to 100			
CSCC(C)(C)C(=O)N(C)c1sc(-c2cncc(F)c2)nc1C [Compound 39]			80 to 100	80 to 100	
CC(C)C(=O)N(C)c1sc(-c2cccnc2)nc1C(F)(F)F [Compound 46]			< 80	< 80	
CCCCC(=O)N(CC)c1sc(-c2cccnc2)nc1Cl [Compound 530]	80 to 100	80 to 100			
C=CC(=O)N(C(=O)C(C)CSC)c1sc(-c2cccnc2)nc1C (centres unmarked) [Compound 204]			80 to 100	< 80	
CSCCC(=O)N(C)c1sc(-c2cncc(C#N)c2)nc1Cl [Compound 508]	< 80	80 to 100			
C=CC(=O)N(CC)c1sc(-c2cccnc2)nc1Cl [Compound 535]	< 80	80 to 100			
CSCCOC(=O)N(C)c1cnc(-c2cncc(F)c2)s1 [Compound 75, [2-(5-fluoropyridin-3-yl)-thiazol-5-yl]-methyl-carbamic acid 2-methylsulfanyl-ethyl Ester]			80 to 100	< 80	
Cc1nc(-c2cccnc2)sc1N(C)C(=O)C(C)NC(=O)OC(C)(C)C (centres unmarked) [Compound 282]			80 to 100	80 to 100	
CCS(=O)(=O)N1CCCC(C(=O)N(C)c2sc(-c3cccnc3)nc2Cl)C1 (centres unmarked) [Compound 394]			80 to 100	80 to 100	
Cc1nc(-c2cccnc2)sc1N(C)C(=O)c1ccc(=O)n(C)n1 [Compound 404]					MYZUPE 200 ppm (Corrected % Control, rating) ([1]; green peach aphid): A (80-100); BEMITA 200 ppm (Corrected % Control, rating) ([2]; sweetpotato whitefly-crawler): B (Less than 80)
CSCC(C)C(=O)Nc1sc(-c2cncc(Cl)c2)nc1C (centres unmarked) [Compound 17, N-[2-(5-chloropyridin-3-yl)-4-methyl-thiazol-5-yl]-2-methyl-3-methylsulfanyl-propionamide]			80 to 100	80 to 100	
Cc1nc(-c2cccnc2)sc1N(C)C(=O)CN(C)S(=O)(=O)/C=C/c1ccccc1 [Compound 436]	< 80	< 80			
